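Step 1: Grow cells in 96-well plates. Step 2: Expose to compound for 48 hours at 5 concentrations. Step 3: Interpolate endpoints linearly; if unreached, use highest concentration. TGI marks complete inhibition of growth.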
Tests used:
Assay in all cases: NCI tumour cell line growth inhibition, 48 h
NCI-H522 lung = test system: NCI-H522 lung
OVCAR-4 ovarian = test system: OVCAR-4 ovarian
OVCAR-5 ovarian = test system: OVCAR-5 ovarian
LOX IMVI melanoma = test system: LOX IMVI melanoma
HT29 colon = test system: HT29 colon
SNB-75 CNS = test system: SNB-75 CNS
HOP-62 NSCLC = test system: HOP-62 NSCLC
CCRF-CEM leukemia = test system: CCRF-CEM leukemia
NCI-H23 lung = test system: NCI-H23 lung
CAKI-1 renal = test system: CAKI-1 renal
DMS 114 small cell lung = test system: DMS 114 small cell lung
M19-MEL melanoma = test system: M19-MEL melanoma
A549 NSCLC = test system: A549 NSCLC

SMILES	TGI (NCI-H522 lung) [µM]	TGI (OVCAR-4 ovarian) [µM]	TGI (OVCAR-5 ovarian) [µM]	TGI (LOX IMVI melanoma) [µM]	TGI (HT29 colon) [µM]	TGI (SNB-75 CNS) [µM]	TGI (HOP-62 NSCLC) [µM]	TGI (CCRF-CEM leukemia) [µM]	TGI (NCI-H23 lung) [µM]	TGI (CAKI-1 renal) [µM]	TGI (DMS 114 small cell lung) [µM]	TGI (M19-MEL melanoma) [µM]	TGI (A549 NSCLC) [µM]
O=S(=O)(c1ccccc1)n1cnc(CCc2ccccc2)n1	> 100	> 100	> 100	> 100	> 100	> 100	> 100	> 100	> 100	> 100	> 100	> 100	> 100
C=C(C)C1Cc2c(cc(OC)c3c(=O)c4ccccc4n(C)c23)O1 (stereo unspecified)	34.3	> 100	> 100	> 100	> 100	> 100	> 100	> 100	> 100	> 100	> 100	> 100	> 100
